These results are taken from patent US20260167677A1, “ANTI-ADAM10 ANTIBODIES AND USES IN TREATMENT OF CANCER” (Memorial Sloan Kettering Cancer Center, priority 2022, published 2026).

Experiment [1] deals with xenografted COLO205 cells. The experiment in a line: Mouse model of CRC using xenografted COLO205 cells. It counts as in vivo. The note with it: first study; 1H5 30 mg/kg i.p. biweekly, irinotecan 20 mg/kg i.p. once a week. The protocol: For the mouse model, COLO205 cells were grown in monolayer culture, harvested by trypsinization, and implanted subcutaneously into the right flank of 6- to 8-week-old female athymic nude mice. Approximately 10 million cells were injected per mouse. Mice were randomized into 4 groups (each n=4).
Tumor volume was determined by external caliper and calculated by the modified ellipsoidal formula: V=½(Length×Width^2). Antitumor efficacy was calculated as (1-dT/dC)[…], where dT is the final tumor volume minus the starting tumor volume from the treatment group, and dC is the final tumor volume minus the starting tumor volume of the control group (Rios-Doria et al., 2015). Error bars were calculated as SEM. The mouse body weight and general health were monitored daily.
In a second study, 1H5 at two different doses was used in the mouse model. For the mouse model, approximately five million cells were implanted (subcutaneous with Matrigel) into 6- to 8-week-old female athymic nude mice. Mice were randomized into 3 groups (each n=5).

For experiment [2], the target named is T1, human ADAM10 ECD (Homo sapiens, UniProt O14672).
T1 construct: Human ADAM10 ECD (20-650); Fc-tag (human); made in house; host or cells: baculovirus-infected Hi5 insect cells
T1 sequence (O14672 20-650): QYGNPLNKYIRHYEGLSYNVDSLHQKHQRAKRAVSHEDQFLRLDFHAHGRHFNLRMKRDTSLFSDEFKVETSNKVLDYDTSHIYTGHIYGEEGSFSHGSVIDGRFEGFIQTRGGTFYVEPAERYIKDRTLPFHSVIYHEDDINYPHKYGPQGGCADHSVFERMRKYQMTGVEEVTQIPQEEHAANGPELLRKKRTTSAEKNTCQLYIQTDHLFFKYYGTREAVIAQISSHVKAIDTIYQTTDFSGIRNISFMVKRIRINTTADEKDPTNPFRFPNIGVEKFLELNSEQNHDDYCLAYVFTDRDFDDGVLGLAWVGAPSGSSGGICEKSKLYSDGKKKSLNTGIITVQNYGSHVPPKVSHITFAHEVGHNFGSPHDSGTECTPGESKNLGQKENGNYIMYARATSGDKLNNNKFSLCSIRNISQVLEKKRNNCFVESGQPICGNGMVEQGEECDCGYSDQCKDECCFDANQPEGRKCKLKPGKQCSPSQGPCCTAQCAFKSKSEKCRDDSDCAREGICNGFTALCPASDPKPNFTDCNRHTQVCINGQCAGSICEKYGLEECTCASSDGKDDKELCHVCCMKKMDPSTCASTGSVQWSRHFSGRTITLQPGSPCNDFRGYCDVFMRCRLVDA
The experiment in a line: Fluorogenic peptide cleavage assay, human ADAM10 ECD. The conditions noted are these: 1:1 molar ratio; human or bovine ADAM10 ECD not told apart. In kind it is biochemical. As for the experimental part:
ADAM10 ECD-antibody or ADAM10 ECD-inhibitor (broad spectrum metalloprotease inhibitor GM6001) complexes were formed at a 1:1 molar ratio prior to the assay. The assay was carried out by mixing 50 μM of a fluorogenic peptide substrate Mca-PLAQAV-Dpa with ADAM10-antibody/inhibitor complexes at 37° C., and monitoring the progress of the enzymatic reaction by fluorescence emission (excitation 320 nm and emission 405 nm) over a time course of 1 hour using a SpectraMax M5. ADAM10 ECD (bovine or human) alone was used as positive control. The substrate peptide was derived from TNFalpha and contains a highly fluorescent 7-methoxycoumarin group and a quencher group, 2,4-dinitrophenyl. ADAM10 cleaves the amide bond between the fluorescent and the quencher group causing an increase in fluorescence (Seegar et al., 2017; Black & Becherer, 1998).

Molecules are shown by their SMILES.

`CCc1c2c(nc3ccc(OC(=O)N4CCC(N5CCCCC5)CC4)cc13)-c1cc3c(c(=O)n1C2)COC(=O)[C@]3(O)CC` [Irinotecan, irinotecan, reference compound] registered a tumor growth inhibition in experiment [1] of 48%.
`CNC(=O)[C@H](Cc1c[nH]c2ccccc12)NC(=O)[C@@H](CC(=O)NO)CC(C)C` [broad-spectrum inhibitor, GM6001, reference compound]: the “effect on substrate cleavage” value in experiment [2] is “marginal inhibition”.
